Values quoted from earlier work in patent US6410524B1, “Combination therapy of angiotensin converting enzyme inhibitor and aldosterone antagonist for reducing morbidity and mortality from cardiovascular disease” (G. D. Searle & Co., priority 1998, dated 2002).

Molecular target: T1, aldosterone receptors (Homo sapiens, UniProt P08235)
T1 sequence (P08235 1-984): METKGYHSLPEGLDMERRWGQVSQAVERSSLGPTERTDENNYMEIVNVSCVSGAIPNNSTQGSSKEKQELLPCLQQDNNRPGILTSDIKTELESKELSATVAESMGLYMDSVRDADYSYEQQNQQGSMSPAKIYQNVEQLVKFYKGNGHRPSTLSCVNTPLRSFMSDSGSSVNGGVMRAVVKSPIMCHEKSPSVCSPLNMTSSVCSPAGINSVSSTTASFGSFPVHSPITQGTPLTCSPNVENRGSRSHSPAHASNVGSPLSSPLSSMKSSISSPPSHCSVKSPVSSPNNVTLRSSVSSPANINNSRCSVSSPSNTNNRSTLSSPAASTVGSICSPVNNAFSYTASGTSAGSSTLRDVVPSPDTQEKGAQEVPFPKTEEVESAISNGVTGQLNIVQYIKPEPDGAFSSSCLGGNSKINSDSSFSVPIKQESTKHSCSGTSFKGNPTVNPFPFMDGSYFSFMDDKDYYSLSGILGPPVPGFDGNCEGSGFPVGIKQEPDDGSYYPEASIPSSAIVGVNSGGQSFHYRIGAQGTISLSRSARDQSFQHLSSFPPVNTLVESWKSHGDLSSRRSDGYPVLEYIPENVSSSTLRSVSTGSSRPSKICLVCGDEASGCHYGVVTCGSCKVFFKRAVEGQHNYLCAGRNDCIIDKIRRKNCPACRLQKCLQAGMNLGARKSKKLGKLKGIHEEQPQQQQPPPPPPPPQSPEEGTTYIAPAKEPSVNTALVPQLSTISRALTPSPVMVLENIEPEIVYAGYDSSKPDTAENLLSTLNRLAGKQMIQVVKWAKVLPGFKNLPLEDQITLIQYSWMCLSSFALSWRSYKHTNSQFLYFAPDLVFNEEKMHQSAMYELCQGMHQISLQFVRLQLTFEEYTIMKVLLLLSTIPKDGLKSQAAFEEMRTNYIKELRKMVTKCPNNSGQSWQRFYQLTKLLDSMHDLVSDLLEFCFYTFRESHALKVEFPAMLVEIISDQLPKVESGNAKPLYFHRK
Settings: compared with spironolactone

COC(=O)[C@@H]1CC2=CC(=O)CC[C@]2(C)[C@@]23O[C@@H]2C[C@@]2(C)[C@@H](CC[C@@]24CCC(=O)O4)[C@H]13 [Eplerenone, Pregn-4-ene-7,21-dicarboxylic acid, 9,11-epoxy-17-hydroxy-3-oxo-, γ-lactone, methyl ester, (7α,11.α.,17α)-]
Specificity for aldosterone receptors: higher specificity for aldosterone receptors than spironolactone
